Reference: US20240316038A1, “APOL1 INHIBITORS AND METHODS OF USE” (Maze Therapeutics, Inc., priority 2021, published 2024)

Columns and labels:
APOL1 G2 [1] = target: T1, APOL1 G2 (Homo sapiens, UniProt O14791, DEL388-389); test: Rescue of HEK293 cell death caused by overexpression of APOL1 (CellTiter-Glo luminescence), HEK293/T-REx APOL1 G2/clone #2; assay type: cell-based; conditions: reversal of cell death caused by overexpression of APOL1; geometric mean of at least 2 assay runs, † = single assay run (technical duplicate)
T1 construct: expressed in transfected cells; host or cells: HEK293 T-REx clonal lines: HEK T-REx/GCaMP6f/APOL1 G2 K6.3 in A1, HEK293/T-REx APOL1 G2/clone #2 in A2
T1 sequence (O14791 with tags, fused parts or gaps DEL388-389): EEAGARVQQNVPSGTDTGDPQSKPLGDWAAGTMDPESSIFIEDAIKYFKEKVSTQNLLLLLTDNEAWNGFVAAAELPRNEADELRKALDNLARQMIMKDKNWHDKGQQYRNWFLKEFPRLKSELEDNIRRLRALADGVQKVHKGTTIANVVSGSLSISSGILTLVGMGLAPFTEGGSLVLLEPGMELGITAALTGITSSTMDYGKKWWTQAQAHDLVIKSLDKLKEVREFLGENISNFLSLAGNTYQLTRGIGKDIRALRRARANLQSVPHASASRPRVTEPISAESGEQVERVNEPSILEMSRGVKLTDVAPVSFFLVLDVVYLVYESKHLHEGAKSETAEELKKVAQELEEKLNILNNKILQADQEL
Protocol: A HEK293 clonal cell line overexpressing APOL1 G2 (HEK293/T-REx APOL1 G2/clone #2) was maintained in 1×DMEM-GlutaMax (Gibco, 10569-010) media with 10% tetracycline-free FBS (Takara Bio USA, 631101), 5 μg/mL Blasticidin (Gibco, A1113903), and 100 μg/mL Zeocin (Invitrogen, R25001) in T75 flasks. In preparation for the assay, this media was aspirated and 2 mL of prewarmed TrypLE Express (Gibco, 12605-010) was added to a flask to detach cells. The flask was then incubated (humidified, 37° C. with 5% CO2) for 3-5 minutes. Afterwards, 8 mL of prewarmed cell assay media (lx DMEM-GlutaMax media with 10% tetracycline-free FBS) was added to the trypsinized cells. The suspension was gently mixed, and cells were counted using a Countess Cell Counting Chamber (Invitrogen). The suspension was diluted using cell assay media to generate a working stock solution (166,667 cells/mL). Using a MultiDrop Combi (Thermo Electron Corp), 30 μL (final cell density=5,000 cells/well) of the working stock solution was dispensed into each well of white 384-well assay ready plates (Nunc™, 164610) containing 6 ng/mL doxycycline, to induce APOL1 expression, and compound. All compounds were plated in a duplicate 8-point dilution series that consisted of 3-fold stepwise dilutions (0.5% DMSO final). Assay plates were incubated (humidified, 37° C. with 5% CO2) for 17 hours. After the incubation, the plates were equilibrated at room temperature for 1 hour. Next, 15 μl of CellTiter-Glo® reagent (Promega, G7570) was added to each well using a MultiDrop Combi. Plates were placed on an orbital shaker (500 rpm) for 5 minutes to induce cell lysis and then incubated at room temperature for 10 minutes. Luminescence was measured on an Envision plate reader. Collaborative Drug Discovery software was utilized for graphing data. Plots were generated using a four parameter logistic curve fit.
Table B2 below provides the results from this experiment. Unless otherwise specified, EC50 values are reported as the geometric mean of at least 2 assay runs on separate days. Each run represents the average of a technical replicate, where each compound was assayed twice in the same plate. A superscript t symbol indicates a value from the average of a technical replicate from a single assay run, where each compound was assayed twice in the same plate. Compounds in Table B2 are referred to by the corresponding Compound Number in Table 1, which is also referred to in the synthetic examples. When one or more of the numbered compounds are identified by stereochemistry (for example, (R)- or (S)—), the specific stereoisomer for which data is provided in Table B2 may be identified by the elution order of such compound as described in the synthetic examples. To illustrate, Compound 2 is the first-eluting enantiomer of step 4 of Example 1 and Compound 3 is the second-eluting enantiomer of step 4 of Example 1. Further, by way of illustration, Compound 27 is the first-eluting enantiomeric mixture in step 4 of Example 7 and Compound 28 is the second-eluting enantiomeric mixture in step 4 of Example 7. Then, Compound 27 is separated into Compound 29 (the first-eluting enantiomer) and Compound 30 (the second-eluting enantiomer) in Example 8, and Compound 28 is separated into Compound 31 (the first-eluting enantiomer) and Compound 32 (the second-eluting enantiomer) in Example 8. Absolute stereochemistry of such compounds may be identified by methods known in the art.
Rescue EC50 values reported in Table B2 below represent the half-maximal effective concentration for reversal of cell death caused by overexpression of APOL1.

APOL1 G2 [2] = target: T1, APOL1 G2; test: APOL1 calcium transport inhibition assay (GCaMP6f calcium influx, FLIPR) in HEK T-REx/GCaMP6f/APOL1 G2 K6.3 cells; assay type: cell-based; conditions: inhibition of APOL1-mediated calcium influx; geometric mean of at least 2 assay runs, † = single assay run (technical duplicate)
Protocol: A HEK293 clonal cell line was generated to stably express GCaMP6f, a genetically encoded calcium indicator, and inducibly express APOL1 G2 (HEK T-REx/GCaMP6f/APOL1 G2 K6.3). Cells were maintained in the following standard complete medium: DMEM with 4.5 g/L glucose and sodium pyruvate (BioWhittaker, Lonza, BE12-614F), supplemented with 10% FBS Performance Plus (Gibco, 16000044), 1% penicillin-streptomycin (BioWhittaker, DE17-602E), 2 mM ultraglutamine-1 (BioWhittaker cat. BE 17-605/U1), 50 μg/mL Zeocin (InvivoGen, ant-zn), 2.5 μg/mL Blasticidin (InvivoGen, ant-bl-5), and 25 μg/mL Hygromycin (InvivoGen, ant-hg). Standard propagation conditions consisted of plating 9×10^6, 4×10^6, 2×10^6 cells in a T225 flasks to be processed after 2, 3, or 4 days, respectively.
A source plate was generated containing 20 serially diluted compounds in DMSO (duplicate 8-point dose response). Next, 0.8 μL of compounds were transferred from the source plate to a destination plate prefilled with 79.2 μL of Ca^2+ free Tyrode's buffer (130 mM NaCl, 5 mM KCl, 1 mM MgCl2, 5 mM NaHCO3, 20 mM HEPES at pH 7.4). The destination plate was placed on a plate shaker (5 seconds at 2000 rpm) to mix. […] All transfer and mixing steps were conducted with an CyBi®-Well dispenser.
Cells were split by gently washing with DPBS (Euroclone, ECB4004L), followed by a 5-minute incubation (humidified, 37° C. with 5% CO2) with trypsin-EDTA solution (Euroclone, ECB3052D). Detached cells were diluted with standard complete medium without selective agents, counted, and plated in a 384 MTP microplate (GR4332CPL, Twin Helix) (10,000 cells/well in 25 μl/well) using a MATRIX WellMate dispenser. Plates were placed into a humidified incubator (37° C. with 5% CO2) overnight. The following day, 20 μL of doxycycline (Sigma, D9891) at 20 ng/mL in standard complete medium was added to cells with a CyBi @Drop dispenser to induce APOL1 G2 expression. After a 6-hour incubation (humidified, 37° C. with 5% CO2), cells were washed 3 times with Ca^2+ free Tyrode's Buffer (130 mM NaCl, 5 mM KCl, 1 mM MgCl2, 5 mM NaHCO3, 20 mM HEPES at pH 7.4) using a BIOTEK Microplate washer, such that 10 μL of buffer remained in each well after the final wash. Assay plates were then stored at room temperature for 10 minutes. Next, 10 μL of diluted compounds were transferred to the assay plate from the 2× compound plate using a CyBi®-Well dispenser. Compound incubation was then carried out at room temperature for 10 minutes. The assay plate was transferred to the […] and 20 μL of 10 mM Ca^2+ (final concentration=5 mM) Tyrode's buffer was injected.
Table B1 below summarizes the data from this experiment. Unless otherwise specified, AC50 and values are reported as the geometric mean of at least 2 assay runs on separate days. Each run represents the average of a technical replicate, where each compound was assayed twice in the same plate. A superscript † symbol indicates a value from the average of a technical replicate from a single assay run, where each compound was assayed twice in the same plate.
The AC50 values in Table B1 below reflect the compound's ability to prevent calcium influx by inhibiting APOL1. […] Compounds in Table B1 are referred to by the corresponding Compound Number in Table 1, which is also referred to in the synthetic examples. When one or more of the numbered compounds are identified by stereochemistry (for example, (R)- or (S)—), the specific stereoisomer for which data is provided in Table B1 may be identified by the elution order of such compound as described in the synthetic examples. To illustrate, Compound 2 is the first-eluting enantiomer of step 4 of Example 1 and Compound 3 is the second-eluting enantiomer of step 4 of Example 1. Further, by way of illustration, Compound 27 is the first-eluting enantiomeric mixture in step 4 of Example 7 and Compound 28 is the second-eluting enantiomeric mixture in step 4 of Example 7. […]

AC50 (APOL1 G2 [2]) | SMILES | EC50 (APOL1 G2 [1])
494 nM | COCCS(=O)(=O)c1ccc(OC[C@@H]2CN(CCc3cccc(Cl)c3)C[C@H]2C)cc1 (single isomer, unassigned) [Compound 111, (3S,4S or 3R,4R)-1-[2-(3-chlorophenyl)ethyl]-3-{[4-(2-methoxyethane-sulfonyl)phenoxy]methyl}-4-methylpyrrolidine] | 1880 nM
> 159 nM | C[C@H]1CN(CCc2cccc(Cl)c2)C[C@@H]1COc1ccc(S(=O)(=O)CCO)cc1 (single isomer, unassigned) [Compound 112, 2-(4-{[(3R,4R or 3S,4S)-1-[2-(3-chlorophenyl)ethyl]-4-methylpyrrolidin-3-yl]methoxy}benzene-sulfonyl)ethan-1-ol] | 29.8 nM
434 nM | C[C@H]1CN(CCc2cccc(Cl)c2)C[C@@H]1COc1ccc(N(C)S(C)(=O)=O)cc1 (single isomer, unassigned) [Compound 47, N-(4-(((3R,4R) or (3S,4S)-1-(3-chlorophenethyl)-4-methylpyrrolidin-3-yl)methoxy)phenyl)-N-methylmethanesulfonamide] | 516 nM
179 nM | C[C@@H]1CN(CCc2cccc(C#N)c2)C[C@H]1COc1ccc(S(=O)(=O)CCCS(C)(=O)=O)cc1 [Compound 168, 3-{2-[(3S,4S)-3-{[4-(3-methanesulfonylpro-panesulfonyl)phe-noxy]methyl}-4-methylpyrrolidin-1-yl]ethyl}benzonitrile] | 126 nM

Second part, the molecule before the results:

SMILES | AC50 (APOL1 G2 [2]) | EC50 (APOL1 G2 [1])
CN(c1ccc(OC[C@H](O)CNC2(Cc3cccc(Cl)c3)CCOC2)cc1)S(C)(=O)=O (stereo partly drawn) [Compound 92, N-(4-((2R)-3-((3-(3-chlorobenzyl)tetra-hydrofuran-3-yl)amino)-2-hydroxypropoxy)phe-nyl)-N-methylmethanesulfon-amide] | 682 nM | > 9790 nM
CN=S(C)(=O)c1ccc(OC[C@@H]2CN(CCc3cc(Cl)cc(C#N)c3)CCN2)cc1 (single isomer, unassigned) [Compound 188, 3-chloro-5-{2-[(3S)-3-({4-[(R or S)-methyl(methyl-imino)oxo-λ^6-sulfanyl]pheno-xy}methyl)piper-azin-1-yl]ethyl}benzo-nitrile] | 511 nM | 303 nM
CS(=O)(=O)c1ccc(OC[C@@H](O)CN2CCCCC2Cc2cccc(Cl)c2)cc1 (single isomer, unassigned) [Compound 63, (2S)-1-((S) or (R)-2-(3-chlorobenzyl)piperidin-1-yl)-3-(4-(methylsulfonyl)phenoxy)propan-2-ol] | 637 nM | 3960 nM
CC1CC(COc2ccc(S(C)(=O)=O)cc2)CN1CCc1cccc(Cl)c1 (single isomer, unassigned) [Compound 55, (2R,4S) or (2R,4R) or (2S,4R) or (2S,4S)-1-(3-chlorophenethyl)-2-methyl-4-((4-(methylsulfonyl)phenoxy)methyl)pyrrolidine] | 1290 nM | 1680 nM
CN(c1ccc(O[C@H]2C[C@H](NCCc3cccc(Cl)c3)C2)cc1)S(C)(=O)=O [Compound 48, trans-N-(4-(3-((3-chlorophenethyl)amino)cyclobutoxy)phenyl)-N-methylmethanesulfonamide] | 1920 nM | 2540 nM
C[C@@H]1CN(CC(O)c2cc(C#N)cc(C#N)c2)C[C@H]1COc1ccc(S(C)(=O)=O)cc1 (stereo partly drawn) [Compound 129, 5-{1-hydroxy-2-[(3S,4S)-3-[(4-methanesulfonylphenoxy)methyl]-4-methylpyrrolidin-1-yl]ethyl}benzene-1,3-dicarbonitrile] | 1040 nM | 723 nM
CC(Cc1cccc(Cl)c1)NC[C@H](O)COc1ccc(N(C)S(C)(=O)=O)cc1 (single isomer, unassigned) [Compound 96, N-(4-((S)-3-(((R) or (S)-1-(3-chlorophenyl)propan-2-yl)amino)-2-hydroxypropoxy)phe-nyl)-N-methylmethanesulfon-amide] | 3770 nM | > 30000 nM
